Patent EP3445348B1, “FLUORESCENT COMPOUNDS, PRODUCTION METHODS AND USES THEREOF” (Universidade de Aveiro, priority 2016, dated 2017)

Legend:
[1] = comparison compound; cited from earlier work
[2] = system: HeLa cells; assay: Resazurin metabolic cell viability assay, HeLa cells; format: cell-based; settings: Human HeLa live cells, 24h, 1×10^-5 mol.L^-1
Excerpt: (§1) The following figures provide preferred embodiments for the present disclosure and should not be seen as limiting the scope of the disclosure. • Figure 1: Scheme of the fluorophore precursors synthesis. • Figure 2: Synthesis of the fluorophores. • Figure 3: Absorption and emission spectra of some of the fluorophores in a dichloromethane (DCM) solution wherein black squares represent the absorption of (1E,4E)-1,5-bis[4-(dimethylamino)phenyl]penta-1,4-dien-3-one; black circles represent the absorption of (2E,6E)-2,6-bis[4-(dimethylamino)benzylidene]cyclohexanone; black diamonds represent the absorption of 2,6-bis[3-bromo-4-(dimethylamino)benzylidene]cyclohexanone; black triangles pointing up represent the absorption of (1E,4E)-1,5-bis[3-bromo-4-(dimethylamino)phenyl]penta-1,4-dien-3-one; black triangles pointing down represent the absorption of (1E,4E)-1,5-bis[3-chloro-4-(dimethylamino)phenyl]penta-1,4-dien-3-one; black stars represent the absorption of 2,6-bis[3-chloro-4-(dimethylamino)benzylidene]cyclohexanone; open squares represent the emission of (1E,4E)-1,5-bis[4-(dimethylamino)phenyl]penta-1,4-dien-3-one; open circles represent the emission of (2E,6E)-2,6-bis[4-(dimethylamino)benzylidene]cyclohexanone; open diamonds represent the emission of 2,6-bis[3-bromo-4-(dimethylamino)benzylidene]cyclohexanone; open triangles pointing up represent the absorption of (1E,4E)-1,5-bis[3-bromo-4-(dimethylamino)phenyl]penta-1,4-dien-3-one; open triangles pointing down represent the absorption of (1E,4E)-1,5-bis[3-chloro-4-(dimethylamino)phenyl]penta-1,4-dien-3-one; open stars represent the absorption of 2,6-bis[3-chloro-4-(dimethylamino)benzylidene]cyclohexanone. • Figure 4: Sample distributions of two cyclic fluorophores: (2E,6E)-2,6-bis[3-bromo-4-(dimethylamino)benzylidene]cyclohexanone labelled as cyclic-Br and (2E,6E)-2,6-bis[3-chloro-4-(dimethylamino)benzylidene]cyclohexanone labelled as cyclic-Cl (orange pseudocolour) in HeLa cells cultured on coverslips and incubated alive and for 1h with 10^-5 mol.L^-1 of the compounds. The laser line 458 nm was used to excite and the confocal Zeiss LSM-510 META 415 to 750 nm detector used to detect the fluorophores. The nuclear DAPI is used as a counterstaining dye. • Figure 5: Co-localization of the compounds (1E,4E)-1,5-bis[4-(dimethylamino)phenyl]penta-1,4-dien-3-one, labelled as linear-H and (2E,6E)-2,6-bis[3-chloro-4-(dimethylamino)benzylidene]cyclohexanone, labelled as cyclic-Cl with the Trans-Golgi Network (TGN) marker Syntaxin-6, which was Texas Red (red colour) and Alexa-405 (cyan pseudocolour) labelled by using secondary antibodies. DAPI (blue colour) was used as nuclear marker. HeLa cells were incubated in particular for 1h with 1-2×10^-5 mol.L^-1 of the fluorophores, before being fixed. The laser line 405 nm, in particular at 10-20% of its power was used to excite the fluorophores. […] A. Cell viability was determined using the metabolic Resazurin assay, and data (resazurin final O.D.±SD of four independent experiments) presented graphically as percentages of control cells (not incubated with the compounds), wherein the control is labelled as Ctrl; (1E,4E)-1,5-bis[4-(dimethylamino)phenyl]penta-1,4-dien-3-one is labelled as L-H; (1E,4E)-1,5-bis[3-chloro-4-(dimethylamino)phenyl]penta-1,4-dien-3-one is labelled as L-Cl; (1E,4E)-1,5-bis[3-bromo-4-(dimethylamino)phenyl]penta-1,4-dien-3-one is labelled as L-Br; (2E,6E)-2,6-bis[4-(dimethylamino)benzylidene]cyclohexanone labelled is labelled as C-H; 2,6-bis[3-chloro-4-(dimethylamino)benzylidene]cyclohexanone is labelled as C-Cl; 2,6-bis[3-bromo-4-(dimethylamino)benzylidene]cyclohexanone is labelled as C-Br. Statistical significance using the student-t test: *p<0.05; **p<0.01. B. Microphotograph of Cyclic-Cl distribution in HeLa and MC3T3 cells upon 24h of exposure to the compounds. Microscope settings used: a 40×/1.3 oil objective; HFT 405/488/633; in particular a 405 nm laser line at 40% of its power. […]

[3] = system: MC3T3 live cells; assay: Resazurin metabolic cell viability assay, MC3T3 cells; format: cell-based, rat; settings: 24h, 1×10^-5 mol.L^-1
Excerpt: as §1

SMILES	storage stability [1]	cytotoxicity (cell viability, resazurin reduction) [2]	cytotoxicity (cell viability, resazurin reduction) [3]
CCN(CC)c1ccc2nc3c4ccccc4c(=O)cc-3oc2c1 [Nile Red, 9-diethylamino-5H-benzo[a]phenoxazine-5-one]	stable if kept at -20 °C	–	–
CN(C)c1ccc(/C=C2\CCC/C(=C\c3ccc(N(C)C)c(Br)c3)C2=O)cc1Br [cyclic-Br, (2E,6E)-2,6-bis[3-bromo-4-(dimethylamino)benzylidene]cyclohexanone]	–	not cytotoxic	not cytotoxic
CN(C)c1ccc(/C=C2\CCC/C(=C\c3ccc(N(C)C)c(Cl)c3)C2=O)cc1Cl [cyclic-Cl, (2E,6E)-2,6-bis[3-chloro-4-(dimethylamino)benzylidene]cyclohexanone]	–	not cytotoxic	not cytotoxic
CN(C)c1ccc(/C=C2\CCC/C(=C\c3ccc(N(C)C)cc3)C2=O)cc1 [cyclic-H, (2E,6E)-2,6-bis[4-(dimethylamino)benzylidene]cyclohexanone]	–	not cytotoxic	not cytotoxic
CN(C)c1ccc(/C=C/C(=O)/C=C/c2ccc(N(C)C)c(Br)c2)cc1Br [linear-Br, (1E,4E)-1,5-bis[3-bromo-4-(dimethylamino)phenyl]penta-1,4-dien-3-one]	–	not cytotoxic	not cytotoxic
CN(C)c1ccc(/C=C/C(=O)/C=C/c2ccc(N(C)C)c(Cl)c2)cc1Cl [linear-Cl, (1E,4E)-1,5-bis[3-chloro-4-(dimethylamino)phenyl]penta-1,4-dien-3-one]	–	not cytotoxic	not cytotoxic
CN(C)c1ccc(/C=C/C(=O)/C=C/c2ccc(N(C)C)cc2)cc1 [linear-H, (1E,4E)-1,5-bis[4-(dimethylamino)phenyl]penta-1,4-dien-3-one]	–	not cytotoxic	not cytotoxic
